Patent publication US20240299400A1, “Transcription Factor GLI1 Inhibitors and Uses Thereof” (University of Connecticut, priority 2023, published 2024)
Values belong to the compound of their own block, whether it stands above or below them.

Key:
GLI1 mRNA expression [1] = assay: RT-qPCR GLI1 mRNA expression in Sufu-KO MEFs; type: cell-based, mouse; conditions: read-out: RT-qPCR, IC50 Sufu-KO
Description: (§1) ASZ001 and Sufu-KO cells were seeded in 96-well plates (10,000/well, 100 μL) and incubated overnight under growth conditions. On the second day, ‘growth’ media was removed and replaced by ‘assay’ media (100 μL). On the third day, cells were treated with a serial dilution of drugs or DMSO for 48 h. mRNA expression was determined through Taqman Fast Cells-to-CT Kit (#4399003) per the manufacturer's instructions. In brief, cells were washed with chilled PBS, then mixed with lysis solution containing DNase I and incubated at RT for 5 min. Stop solution was then added to quench the lysis reagents. cDNA was then synthesized through a BioRad MyCycler following addition of reverse transcriptase. Finally, the cDNA was amplified through an ABI 7500 system following addition of Taqman Fast Universal PCR Master Mix and Taqman Gene Expression Primer. Relative gene expression levels were computed by the ΔΔCt method. Values represent mRNA expression relative to DMSO control (set at 1.0). Data were analyzed using GraphPad Prism, and IC50 values are the mean±SEM for at least two separate experiments performed in triplicate. Primers used are as follows: mouse ActB (Mm00607939_s1); mouse GLI1 (Mm00494645_ml); mouse Gli2 (Mm01293117_ml); mouse Ptch1 (Mm00436026_ml); mouse Hhip (Mm00469580_ml).

GLI1 mRNA expression [2] = assay: RT-qPCR GLI1 mRNA expression in ASZ001 BCC cells; type: cell-based, mouse; conditions: read-out: RT-qPCR, IC50 ASZ001
Description: as §1

GLI1 mRNA expression [3] = assay: RT-qPCR GLI1 mRNA expression in OHCs-stimulated C3H10T1/2 MEFs; type: cell-based, mouse; conditions: mean ± SEM; for IC50: Table 4, racemates and enantiomers, read-out: RT-qPCR, IC50 C3H10T1/2
Description: as §1
C3H10T1/2 MEFs were seeded in 24-well plates (50,000/well, 500 μL). Following 24 h incubation, the ‘growth’ media was removed and replaced with ‘assay’ media (500 μL). On the third day, cells were treated with either DMSO, OHCs, or OHCs+drugs. Following a 24 h incubation, gene expression analysis was carried out following identical protocols as described above.

GLI1-ZFD [4] = biological target: T1, GLI1-ZFD (Homo sapiens, UniProt P08151); assay: Surface plasmon resonance (SPR) binding to GLI1-ZFD; conditions: analyte 100 to 3.125 μM, 1:1 binding fit
T1 construct: GLI1-ZFD Expression and Purification; made in house
T1 sequence (P08151 234-388 limits assumed): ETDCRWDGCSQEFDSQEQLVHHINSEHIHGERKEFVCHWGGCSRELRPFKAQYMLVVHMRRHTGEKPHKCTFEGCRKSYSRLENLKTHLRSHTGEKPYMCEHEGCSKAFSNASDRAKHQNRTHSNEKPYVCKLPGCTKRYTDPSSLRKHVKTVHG
Description: SPR studies were performed on a Biacore T200 as a contract service by Creative Biolabs (Shirley, NY, USA), utilizing the same procedure described previously [G. Yernale, A comprehensive review on the biological interest of quinoline and its derivatives. Bioorg. Med. Chem. 32 (2021) 115973]. Briefly, GLI1 protein was immobilized on a Series S CM5 sensor chip (GE Healthcare), and various concentrations of compound 1a/b were injected (flow rate, 30 μL/min) with a contact time of 180 s and dissociation time of 600 s. Kinetic parameters were determined by the Biacore T200 evaluation software.

GLI1-ZFD [5] = biological target: T1, GLI1-ZFD; assay: Microscale thermophoresis (MST) binding to GLI1-ZFD
Description: The protein expression and purification experiments followed the previous reported procedures [C. A. Maschinot, et al., Synthesis and evaluation of third generation vitamin D3 analogues as inhibitors of hedgehog signaling. Euro. J. Med. Chem. 162 (2019) 495-506].
GLI1 protein labeling was performed through the Monolith Protein Labeling Kit RED-NHS 2nd Generation (Nanotemper #MO-LO11) per the manufacturer's instructions. Briefly, GLI1 (100 μg, 1 mg/mL) underwent buffer exchange to remove incompatible ingredients like Tris or DTT. Proteins in the Labeling Buffer were incubated with freshly prepared dye (˜3-fold excess of dye) for 30 min at RT in the dark. Unreacted ‘free’ dye was removed by a gel-filtration column. Protein concentration and degree-of-labeling were calculated by measuring absorption at 280 nm and 650 nm. For each assay, 200 nM GLI1 in MST Buffer was mixed with compound dilution in DMSO (DMSO<5%, v/v). The mixture was then loaded to a capillary and the thermophoresis was subsequently determined through Monolith NT.115 station. Results were analyzed by MO.Affinity Analysis software and visualized by Graphpad Prism. MST Buffer: 50 mM HEPES, pH 8.3, 100 mM NaCl.

PANC-1 (pancreatic) = assay: MTS anti-proliferative assay in PANC-1 cells; type: cell-based; conditions: Table 8, 48 h, mean ± SEM
Description: (§2) Cell viability was assessed by MTS proliferation assay kit (Promega) per manufacturer's protocol. Briefly, 2×10^4 cells were plated in a 96-well plate in 100 μL growth medium to make the cell population at ˜80% confluence. After 24 h, 1 μL drug solution was added to each well. DMSO was used as vehicle compound. After 48 h incubation (37° C., 5% CO2), 20 μL of freshly prepared 3-(4,5-dimethylthiazol-2-yl)-5-(3-carboxymethoxyphenyl)-2-(4-sulfophenyl)-2H-tetrazolium (MTS)/phenazine methosulfate (PMS) solution was added to each well, and the plate was returned to the incubator for 1 h. Absorbance at 490 nm was recorded, and the result was analyzed by GraphPad Prism 5. GI50 values represent mean±SEM for at least two separate experiments performed in triplicate.

DAOY (MB) = assay: MTS anti-proliferative assay in DAOY cells; type: cell-based; conditions: Table 8, 48 h, mean ± SEM
Description: as §2

ASZ001 cells = assay: MTS anti-proliferative assay in ASZ001 cells; type: cell-based, murine; conditions: Ave ± SEM
Description: as §2

Hhip mRNA expression = assay: RT-qPCR Hhip mRNA expression in ASZ001 cells; type: cell-based, mouse; conditions: 10 μM, FIG. 4A
Description: as §1

GLI2 protein expression = assay: Western blot GLI2 protein expression in ASZ001 cells; type: cell-based, murine; conditions: 25 μM
Description: (§3) ASZ001 cells were plated as described above and treated with drugs or vehicle control. Following incubation, cells were washed with chilled PBS and lysed with RIPA buffer containing […] PMSF protease inhibitor (Thermo Scientific #26978). Supernatant was collected following 15 min centrifugation at 12,000 rpm and 4° C. Protein concentrations from cell extracts were determined through the BCA kit (Pierce #23228) per the manufacturer's instructions. Proteins from either cell lysate or cell-free biochemical assay were then loaded on 12% SDS-PAGE. Following electrophoresis, proteins were transferred onto nitrocellulose membrane at 100 V for 120 min at 4° C. On a clean tray with constant gentle shaking, the membrane was sequentially submerged in 5% BSA for 1 h, and incubated with the primary antibody indicated overnight at 4° C. After washes with TBST, the appropriate secondary antibody was added to the tray for a 2 h incubation at RT. Chemiluminescent detection on film was visualized using ECL reagents (BioRad #1705060) and subsequently quantitated using Image J (http://imagej.nih.gov). Primary antibodies were used at 1:2000 dilution and are as follows: GLI1 (#MA5-32553); Gli2 (#PA5-79314); β-Actin (#PA1-16889). Secondary antibody (Goat anti-Rabbit, #32460) was used at a 1:5000 dilution. All antibodies were purchased from Invitrogen.

GLI1 protein levels = assay: Western blot GLI1 protein expression in ASZ001 cells; type: cell-based, murine; conditions: 25 μM
Description: as §3

[6] = Table 4, racemates and enantiomers, mean ± SEM
[7] = Mus musculus, Table 7, GLI1 mRNA, Ave ± SEM
[8] = Mus musculus, ASZ001, Table 7, GLI1 mRNA, Ave ± SEM
[9] = Mus musculus, ASZ001, Table 7, 48 h

IC50 (GLI1 mRNA expression [1]; [6]): 1.7 ± 0.6 µM
IC50 (GLI1 mRNA expression [2]; Mus musculus, ASZ001, Table 4, racemates and enantiomers, mean ± SEM): 1.8 ± 0.7 µM
IC50 (GLI1 mRNA expression [3]): 0.71 ± 0.26 µM
Ka (GLI1-ZFD [4]; listed as 1a (R)): 171 M⁻¹ s⁻¹
Kd (GLI1-ZFD [4]; listed as 1a (R)): 0.00165 s⁻¹
Rmax (GLI1-ZFD [4]; listed as 1a (R)): 62.84
Kd (GLI1-ZFD [4]; read-out: KD): 9.66 µM
Kd (GLI1-ZFD [5]; Table 4, mean ± SEM): 12.9 ± 1.6 µM
SMILES: CCN(CC)c1ccc(C(Nc2ccccn2)c2ccc3ccc(C)nc3c2O)cc1 (single isomer, unassigned) [Compound 1a]

IC50 (GLI1 mRNA expression [1]; [6]): 0.75 ± 0.38 µM
IC50 (GLI1 mRNA expression [2]; [6]): 1.9 ± 0.6 µM
IC50 (GLI1 mRNA expression [3]): 0.12 ± 0.08 µM
Ka (GLI1-ZFD [4]; listed as 1b (S)): 70.3 M⁻¹ s⁻¹
Kd (GLI1-ZFD [4]; listed as 1b (S)): 0.00131 s⁻¹
Rmax (GLI1-ZFD [4]; listed as 1b (S)): 78.64
Kd (GLI1-ZFD [4]; read-out: KD): 18.7 µM
Kd (GLI1-ZFD [5]; Table 4, mean ± SEM): 22.1 ± 4.3 µM
SMILES: CCN(CC)c1ccc(C(Nc2ccccn2)c2ccc3ccc(C)nc3c2O)cc1 (single isomer, unassigned) [Compound 1b]

IC50 (GLI1 mRNA expression [1]; Table 5, GLI1 mRNA, Ave ± SEM): 5.3 ± 1.4 µM
GI50 (PANC-1 (pancreatic)): 35.2 ± 7.5 µM
IC50 (GLI1 mRNA expression [2]; Table 5, GLI1 mRNA, Ave ± SEM): 11.1 ± 1.5 µM
Kd (GLI1-ZFD [5]; Table 5, Ave ± SEM): 65.2 ± 15.2 µM
SMILES: CN(C)c1ccccc1CN1CCCN(Cc2ccccc2N(C)C)C1c1ccncc1 [GANT61, reference compound]
expression of Hhip mRNA (in words) (Hhip mRNA expression): more effective at reducing Hhip expression compared to GLI1
GLI2 protein expression (in words) (GLI2 protein expression): inactive
GI50 (DAOY (MB)): 27.2 ± 3.6 µM
% Gli1 Expression (GLI1 mRNA expression [3]; C3H10T1/2 MEFs, 10 μM, relative to Hh-agonist OHCs (set as 100%)): 72.4 ± 5.6%
GI50 (ASZ001 cells; Table 5, 48 h): 57.5 ± 14 µM
GLI1 protein levels (in words) (GLI1 protein levels): significantly down-regulated

Further lines, the compound ahead of its results:

SMILES: CCN(CC)c1ccc(CNc2ccccn2)cc1 [Compound 14, N-(4-Diethylaminobenzyl)pyridin-2-amine]
IC50 (GLI1 mRNA expression [1]; Mus musculus, Table 5, GLI1 mRNA, Ave ± SEM): > 25 µM
GI50 (PANC-1 (pancreatic); Homo sapiens, PANC-1): 61.9 ± 9.3 µM
IC50 (GLI1 mRNA expression [2]; Mus musculus, ASZ001, Table 5, GLI1 mRNA, Ave ± SEM): 10 ± 3.2 µM
GI50 (DAOY (MB); Homo sapiens, Daoy): 45.2 ± 7.7 µM
GI50 (ASZ001 cells; Mus musculus, ASZ001, Table 5, 48 h): 34.9 ± 6.1 µM
Kd (GLI1-ZFD [5]; Table 5, Ave ± SEM): > 125 µM

SMILES: Cc1ccc2ccc(C(Nc3ccccn3)c3ccccc3)c(O)c2n1 (centres unmarked) [Compound 34, 7-(Phenyl(pyridin-2-ylamino)methyl)-2-methylquinolin-8-ol]
IC50 (GLI1 mRNA expression [1]; [7]): 7.2 ± 2 µM
GI50 (PANC-1 (pancreatic); Homo sapiens, PANC-1): 94.3 ± 19.5 µM
IC50 (GLI1 mRNA expression [2]; [8]): 21.3 ± 5.2 µM
GI50 (DAOY (MB); Homo sapiens, Daoy): > 100 µM
GI50 (ASZ001 cells; [9]): > 100 µM
binding to GLI1 (in words) (GLI1-ZFD [5]; MST binding assay): do not bind GLI1
Kd (GLI1-ZFD [5]; Table 7, Ave ± SEM): > 125 µM

SMILES: Cc1ccc2ccc(C(Nc3ccccn3)c3ccc(N(C)C)cc3)c(O)c2n1 (centres unmarked) [Compound 42, 7-((4-Dimethylaminophenyl)(pyridin-2-ylamino)methyl)-2-methylquinolin-8-ol]
IC50 (GLI1 mRNA expression [1]; [7]): 1.2 ± 0.3 µM
GI50 (PANC-1 (pancreatic); Homo sapiens, PANC-1): 45.4 ± 10.3 µM
IC50 (GLI1 mRNA expression [2]; [8]): 1.5 ± 0.6 µM
GI50 (DAOY (MB); Homo sapiens, Daoy): 18.3 ± 3.6 µM
GI50 (ASZ001 cells; [9]): 10.1 ± 1.8 µM

SMILES: Cc1ccc2ccc(C(Nc3ccccn3)c3ccc(N4CCCC4)cc3)c(O)c2n1 (centres unmarked) [Compound 43, 7-((4-(Pyrrolidin-1-yl)phenyl)(pyridin-2-ylamino)methyl)-2-methylquinolin-8-ol]
IC50 (GLI1 mRNA expression [1]; [7]): 1.2 ± 0.6 µM
GI50 (PANC-1 (pancreatic); Homo sapiens, PANC-1): 29.6 ± 5.2 µM
IC50 (GLI1 mRNA expression [2]; [8]): 1.3 ± 0.3 µM
GI50 (DAOY (MB); Homo sapiens, Daoy): 12.8 ± 1.9 µM
GI50 (ASZ001 cells; [9]): 8.8 ± 2.4 µM

SMILES: Cc1ccc2ccc(C(Nc3ccccn3)c3ccc(N4CCCCC4)cc3)c(O)c2n1 (centres unmarked) [Compound 44, 7-((4-(Piperidin-1-yl)phenyl)(pyridin-2-ylamino)methyl)-2-methylquinolin-8-ol]
IC50 (GLI1 mRNA expression [1]; [7]): 4.5 ± 1 µM
GI50 (PANC-1 (pancreatic); Homo sapiens, PANC-1): 52.7 ± 5.3 µM
IC50 (GLI1 mRNA expression [2]; [8]): 4 ± 0.8 µM
GI50 (DAOY (MB); Homo sapiens, Daoy): 22.6 ± 4 µM
GI50 (ASZ001 cells; [9]): 27.7 ± 5.3 µM

SMILES: Cc1ccc2ccc(C(Nc3ccccn3)c3ccc(N4CCOCC4)cc3)c(O)c2n1 (centres unmarked) [Compound 45, 7-((4-Morpholinophenyl)(pyridin-2-ylamino)methyl)-2-methylquinolin-8-ol]
IC50 (GLI1 mRNA expression [1]; [7]): 1.4 ± 0.4 µM
GI50 (PANC-1 (pancreatic); Homo sapiens, PANC-1): 61.1 ± 11.5 µM
IC50 (GLI1 mRNA expression [2]; [8]): 2.2 ± 0.8 µM
GI50 (DAOY (MB); Homo sapiens, Daoy): 24.2 ± 5.8 µM
GI50 (ASZ001 cells; [9]): 18.3 ± 1.5 µM
